Here are results for four compounds from patent US5849735A, “Tricyclic benzazepine vasopressin antagonists” (American Cyanamid Company, priority 1995, dated 1998).

Broadly, the IC50 is the point on the concentration scale where inhibition reaches its midpoint. Low readings indicate greater potency in that assay, high ones weaker potency in that assay. What is called inhibition is how much of the control response was suppressed. The low end stands for a response near the control, the high end for a response far below the control.

Each structure is given as a SMILES string.

In experiment [1] the target is T1, oxytocin receptor (rat uteri) (Rattus norvegicus, UniProt P70536).
T1 construct: The uteri are dissected out, cleaned of fat and connective tissues; from tissue; host or cells: uteri of diethylstilbestrol-treated female Sprague-Dawley rats
T1 sequence (P70536 1-388): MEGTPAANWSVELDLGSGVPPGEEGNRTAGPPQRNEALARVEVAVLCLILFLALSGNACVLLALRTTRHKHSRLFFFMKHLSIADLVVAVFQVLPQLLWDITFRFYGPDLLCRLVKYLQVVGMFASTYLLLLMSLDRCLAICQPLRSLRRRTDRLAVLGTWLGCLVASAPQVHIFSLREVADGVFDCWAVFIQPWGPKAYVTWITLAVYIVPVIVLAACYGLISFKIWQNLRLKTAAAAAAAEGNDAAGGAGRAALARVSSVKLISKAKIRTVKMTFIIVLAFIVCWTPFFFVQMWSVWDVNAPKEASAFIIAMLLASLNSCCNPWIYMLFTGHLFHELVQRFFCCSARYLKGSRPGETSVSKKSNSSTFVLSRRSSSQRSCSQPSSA
Nature of the experiment: Oxytocin Receptor Binding. Also noted: species or system rat (Sprague-Dawley). The settings on record: for IC50: [3H]oxytocin displacement. As for the experimental part: Oxytocin Receptor Binding
Female Sprague-Dawley rats weighing approximately 200-250 g are injected intramuscularly (i.m.) with 0.3 mg/kg of body weight of diethylstilbestrol (DES). The rats are sacrificed 18 hours later under pentobarbital anesthesia. The uteri are dissected out, cleaned of fat and connective tissues and rinsed in 50 ml of normal saline. The tissue pooled from six rats is homogenized in 50 ml of […] Tris. HCl, containing 0.5 mM dithiothreitol and 1.0 mM EDTA, adjusted to pH 7.4, using a polytron at setting 6 with three passes of 10 sec each. The homogenate is passed through two (2) layers of cheesecloth and the filtrate centrifuged at 1000×g for 10 minutes. The clear supernatant is removed and recentrifuged at 165,000×g for 30 minutes. The resulting pellet containing the oxytocin receptors is resuspended in 50.0 mM Tris.HCl containing 5.0 mM MgCl2 at pH 7.4, to give a protein concentration of 2.5 mg/ml of tissue suspension. This preparation is used in subsequent binding assays with [^3 H]oxytocin.
Binding of 3,5-[^3 H]Oxytocin ([^3 H]OT) to its receptors is done in microtiter plates using [^3 H]OT, at various concentrations, in an assay buffer of 50.0 mM Tris.HCI, pH 7.4 and containing 5.0 mM MgCl2, and a mixture of protease inhibitors: BSA, 0.1 mg; aprotinin, 1.0 mg; 1,10-phenanthroline, 2.0 mg; […], 10.0 mg; and PMSF, 0.3 mg per 100 ml of buffer solution. Non-specific binding is determined in the presence of 1.0 uM unlabeled OT. The binding reaction is terminated after 60 minutes, at 22° C., by rapid filtration through glass fiber filters using a Brandel® cell harvester (Biomedical Research and Development Laboratories, Inc., Gaithersburg, Md.). Competition experiments are conducted at equilibrium using 1.0 nM [^3 H]OT and varying the concentration of the displacing agents. The concentrations of agent displacing 50% of [^3 H]OT at its sites (IC50) are calculated by a computer assisted LUNDON-2 program (LUNDON SOFTWARE INC., Ohio, USA).

Experiment [2] addresses T2, vasopressin V2 receptor (rat kidney medullary) (Rattus norvegicus, UniProt Q00788).
T2 construct: Medullary tissues from rat kidneys are dissected out; from tissue; host or cells: rat kidney medulla membranes
Nature of the experiment: Binding Assay to Rat Kidney Medullary V2 Receptors. As for the experimental part:
Binding Assay to Rat Kidney Medullary V2 Receptors
Medullary tissues from rat kidneys are dissected out, cut into small pieces and soaked in a […] sodium chloride solution containing 1.0 mM EDTA with many changes of the liquid phase, until the solution is clear of blood. […] The tissue is homogenized in a 0.25M sucrose solution containing 1.0 mM EDTA and 0.1 mM PMSF using a Potter-Elvehjem homogenizer with a teflon pestle. The homogenate is filtered through several layers (4 layers) of cheese cloth. The filtrate is rehomogenized using a dounce homogenizer, with a tight fitting pestle. The final homogenate is centrifuged at 1500×g for 15 min. The nuclear pellet is discarded and the supernatant fluid recentrifuged at 40,000×g for 30 min. The resulting pellet formed contains a dark inner part with the exterior, slightly pink. The pink outer part is suspended in a small amount of 50.0 mM Tris.HCl buffer, pH 7.4. The protein content is determined by the Lowry's method (Lowry et al., J. Biol. Chem., 1953). The membrane suspension is stored at -70° C., in 50.0 mM Tris.HCl, containing 0.2% inactivated BSA and 0.1 mM PMSF in aliquots of 1.0 ml containing 10.0 mg protein per ml of suspension until sue in subsequent binding experiments.
For binding experiments, the following is added in ml volume to wells of a 96 well format of a microtiter plate: 100.0 ml of 100.0 mM Tris.HCl buffer containing 0.2% heat inactivated BSA, 10.0 mM MgCL2 and a mixture of protease inhibitors: leupeptin, 1.0 mg %; aprotinin, 1.0 mg % 1,10-phenanthroline, 2.0 mg %; trypsin inhibitor, and 0.1 mM PMSF, 20.0 ml of [^3 H] Arginine^8, vasopressin (S.A. 75.0 Ci/mmole) at 0.8 nM and the reaction initiated by the addition of 80.0 ml of tissue membranes (200.0 mg tissue protein). The plates are left undisturbed on the bench top for 120 minutes to reach equilibrium. Non-specific binding is assessed in the presence of 1.0 mM of unlabeled ligand, added in 20 ml volume. For test compounds, these are solubilized in 50% dimethylsulfoxide (DMSO) and added in 20.0 ml volume to a final incubation volume of […]. Upon completion of binding, the content of each well is filtered off, using a Brandel® cell Harvester (Gaithersburg, Md.). The radioactivity trapped on the filter disk by the ligand-receptor complex is assessed by liquid scintillation counting in a Parkard LS Counter, with an efficiency of 65% for tritium.

Experiment [3] deals with T3, vasopressin V1 receptor (rat liver plasma membranes) (Rattus norvegicus, UniProt P30560).
T3 construct: Rat liver plasma membranes expressing the vasopressin V1 receptor subtypes; from tissue; host or cells: rat liver plasma membranes
Nature of the experiment: Binding Assay to Rat Hepatic V1 Receptors. The method, then:
Binding Assay to Rat Hepatic V1 Receptors
Rat liver plasma membranes expressing the vasopressin V1 receptor subtypes are isolated by sucrose density gradient according to the method described by Lesko et al., (1973). These membranes are quickly suspended in 50.0 mM Tris.HCl buffer, pH 7.4, containing 0.2% bovine serum albumin (BSA) and 0.1 mM phenylmethylsulfonylfluoride (PMSF) and kept frozen at -70° C. until used in subsequent binding experiments. For binding experiments, the following is added to the wells of a ninety-six well format microtiter plate: […] of […] buffer containing 10.0 mM MgCl2, 0.2% heat inactivated BSA and a mixture of protease inhibitors: leupeptin, 1.0 mg %; aprotinin, 1.0 mg %; 1,10-phenanthroline,2.0 mg %; trypsin inhibitor, 10.0 mg % and 0.1 mM PMSF, 20.0 ml of [phenylalanyl-3,4,5, -^3 H] vasopressin (S.A. 45.1 Ci/mmole) […], and the reaction initiated by the addition of 80 ml of tissue membranes containing 20 mg of tissue protein. The plates are kept undisturbed on the bench top at room temperature for 120 min. to reach equilibrium. Non-specific samples are assayed in the presence of 0.1 mM of the unlabeled […] phenylalanylvasopressin, added in 20.0 ml volume.
For test compounds, these are solubilized in 50% dimethylsulfoxide (DMSO) and added in 20.0 ml volume to a final incubation volume of […]. Upon completion of binding, the content of each well is filtered off, using a Brandel® cell Harvester (Gaithersburg, Md.). The radioactivity trapped on the filter disk by the ligand-receptor complex is assessed by liquid scintillation counting in a Packard LS Counter, with an efficiency of 65% for tritium.

T2 sequence (Q00788 whole entry): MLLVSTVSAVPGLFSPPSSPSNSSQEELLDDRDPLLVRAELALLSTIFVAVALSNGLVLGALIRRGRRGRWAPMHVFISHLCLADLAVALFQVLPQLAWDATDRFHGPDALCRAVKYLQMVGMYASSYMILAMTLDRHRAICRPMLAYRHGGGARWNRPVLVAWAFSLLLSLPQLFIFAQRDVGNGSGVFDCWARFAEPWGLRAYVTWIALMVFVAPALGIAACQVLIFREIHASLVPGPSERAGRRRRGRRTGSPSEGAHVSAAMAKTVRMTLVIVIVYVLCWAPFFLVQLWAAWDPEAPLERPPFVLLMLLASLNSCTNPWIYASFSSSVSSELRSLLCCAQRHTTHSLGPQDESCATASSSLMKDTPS
T3 sequence (P30560 whole entry): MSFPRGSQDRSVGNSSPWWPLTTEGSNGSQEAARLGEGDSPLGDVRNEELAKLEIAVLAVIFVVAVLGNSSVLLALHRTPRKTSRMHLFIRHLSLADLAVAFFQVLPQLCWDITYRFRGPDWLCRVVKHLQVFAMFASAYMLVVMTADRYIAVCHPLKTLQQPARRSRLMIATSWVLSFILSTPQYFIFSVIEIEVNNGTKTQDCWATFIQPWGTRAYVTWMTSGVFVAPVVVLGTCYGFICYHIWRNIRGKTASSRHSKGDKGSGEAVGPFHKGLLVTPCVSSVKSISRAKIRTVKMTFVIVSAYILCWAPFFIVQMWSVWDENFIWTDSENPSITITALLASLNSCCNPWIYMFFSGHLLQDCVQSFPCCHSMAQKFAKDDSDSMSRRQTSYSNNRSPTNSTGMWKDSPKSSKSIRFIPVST

Consider `O=C(c1ccc(-c2ccccc2)cc1)N1Cc2ccccc2Nc2ccccc21` [Example 25], for which, in experiment [1], the IC50 stood at 113 nM and the inhibition at 10 µM worked out at 94%. For the same compound, the inhibition at 1 µM in experiment [2] (rat kidney V2, at 1 μM) amounted to 39%. Besides, testing at 1 µM in experiment [3] (2 h, rat hepatic V1) gave an inhibition of 100%.

For `O=C(Nc1ccc(C(=O)N2Cc3ccccc3Cc3ccccc32)cn1)c1ccccc1-c1ccccc1` [Example 12, N-[5-[(6,11-Dihydro-5H-dibenz[b,e]azepin-5-yl)carbonyl]-2-pyridinyl][1,1'-biphenyl]-2-carboxamide], in experiment [1], the IC50 is 610 nM and at 10 µM the inhibition was 76%. In addition, the “V2 %” value in experiment [2] (rat kidney V2, "at μM" (concentration not given)) amounted to 90%. Besides, testing at 1 µM in experiment [3] (2 h, rat hepatic V1) gave an inhibition of 100%.

In experiment [1], `Cc1ccc(F)cc1C(=O)Nc1ccc(C(=O)N2Cc3ccccc3Oc3ccccc32)cn1` [Example 1, N-[5-(Dibenz[b,f][1,4]oxazepin-10(11H)-ylcarbonyl)-2-pyridinyl]-5-fluoro-2-methylbenzamide] had an inhibition at 1 µM of 12%. Besides, the IC50 in experiment [2] (rat kidney medullary V2 receptors) was found to be 54 nM; in experiment [3] (rat hepatic V1 receptors) it was 240 nM.

Regarding `O=C(c1ccccc1)c1ccc(C(=O)N2Cc3ccccc3CCc3ccccc32)cc1` [Example 33, 5-(4-Benzoylbenzoyl)5,6,11,12-tetrahydrodibenz[b,f]azocine], the inhibition at 1 µM in experiment [1] was determined as 37%. Moreover, the inhibition at 10 µM in experiment [2] (rat kidney V2, at 10 μM) turned out to be 16%; in experiment [3] (2 h, rat hepatic V1, at 10 μM), 10%.
